Reference: article PMC11885506, “Evaluation of a non-animal toolbox informed by adverse outcome pathways for human inhalation safety” (Frontiers in Toxicology, 2025)
“Also recorded” adds a separate entry of the source. Where a name gives a salt, the structure may show the parent alone.

Legend:
MucilAir™-HF tissues [1] = experiment: Mucin-5AC (Muc5AC) immunohistochemistry, goblet cells, MucilAir-HF model; assay type: cell-based, human; conditions: 30 min/day exposure, average ± standard deviation
Procedure: (§1) Tissues were handled as recommended by manufacturer’s instruction.
The presence of goblet cells was assessed through immunohistochemistry analysis for mucin-5AC protein (Muc5AC) detection. IL-13 and cytomix were used as positive controls (see item 2.5.2 for additional details). On last day of experiment (day 12), cultures (n = 3 tissues/group) were rinsed in PBS and fixed by immersion in 4% formaldehyde for 20 min. Fixed tissues were embedded into paraffin, sectioned, and processed for staining on paraffin sections. The immunostaining of the sections was performed with the Benchmark automated platform (Ventana-Roche, Hoffmann-La Roche Ltd, Basel, Switzerland) and the Autostainer Link 48 (Agilent, Santa Clara, CA. United States) with the detection kit Ultraview DAB (DAB chromogeny, Hoffmann-La Roche Ltd). Sections were pre-treated using heat mediated antigen retrieval with sodium citrate buffer, pH 6, for 20 min. The section was then incubated with recombinant anti-mucin 5AC antibody (ab3649, Abcam) for 1 h at room temperature, followed by biotinylated secondary antibody (Dako) and HRP detection (HRP conjugated ABC system, Vector Laboratories), according to manufacturer’s instruction. The section was then counterstained with hematoxylin (Sigma-Aldrich) and mounted with DPX, a synthetic non-aqueous mounting medium for microscopy. Digital images of the slides were then acquired, and quantitative image analysis performed using Image Pro Plus 6.2 (Media Cybernetics) to quantify the goblet cells on a section. The whole images of stained sections were scanned, and an average 15 images/section were analysed. The results are the ratio between the mucin 5AC stained area and the total surface area of the epithelium on the section.

MucilAir™-HF tissues [2] = experiment: Cytokine and chemokine measurements (Luminex), MucilAir-HF model; assay type: cell-based, human; conditions: for Cytokines/chemokines modulated (in words): MucilAir-HF; for MinPoD: MucilAir™-HF model, biomarker IL-1ra
Procedure: as §1
Basolateral medium samples of the tissue cultures were collected and stored at −80°C until analysis. The following cytokines/chemokines were quantified using customized Human Luminex® Discovery Assay kits (R&D Systems): chemokine (C-C motif) ligand (CCL) 2, CCL7, CCL26, C-X-C motif chemokine ligand (CXCL) 10, CXCL11, intercellular adhesion molecule-1 (ICAM-1), IL-1α, IL-6, IL-8, matrix metalloproteinase (MMP)-1, MMP-2, MMP-3, MMP-7, MMP-9, osteopontin, interferon (IFN)-γ, IL-1 receptor antagonist (IL-1Ra), urokinase-type plasminogen activator receptor (uPAR), tumour necrosis factor (TNF)-α, urokinase (uPA), serpin E1, tissue inhibitor of metalloproteinase 1 (TIMP-1), and TGF-β1. Samples were measured in technical triplicates according to the manufacturer’s recommendation using a Luminex Bio-Plex® 200 RUO System ([…]).

MucilAir™-HF tissues [3] = test system: MucilAir™-HF tissues
Procedure: (§4) The MucilAir™-HF system (EP11MD) and ready-to-use chemically-defined, serum-free culture medium (EP04AM) were obtained from Epithelix Sàrl (Geneva, Switzerland). Tissues were handled as recommended by manufacturer’s instruction. […] After differentiation for 42 up to 81 days at the air-liquid interface (ALI) under standard culture conditions (37°C ± 1°C in a humidified atmosphere of 5% ± 1% CO2 in air), tissues were washed 3 days before first exposure and each insert was inspected for beating cilia and mucus production. This washing step (one or twice with PBS) were performed to remove accumulated mucus and cell debris to minimize the risk of interference with the toxicity tests. Over 12-day experimental period, washing steps as well as media changes was performed every 2-3 days.
(§5) For toxicity testing performed over a 12-day experimental period, tissues were daily exposed to 3 different concentrations of each test material for 30 min or 6 h (for detailed information on each material see Table 1). […]
(§6) TEER measurements were performed daily after test item exposure to evaluate tissue barrier function. Tissues were washed, 200 µL of buffered saline solution was added to the apical compartment of MucilAir™-HF cultures, and resistance was measured using an EVOMX volt-ohmmeter with chopstick style probes (World Precision Instruments, Stevenage, UK). […]

MucilAir™-HF tissues [4] = experiment: TEER analysis of tissue barrier integrity, MucilAir-HF model; conditions: Day 4, biomarker TEER
Procedure: as §4, §5, §6

[5] = test system: Beas2B, HFL-1 and H292 cells; set-up: method as in Gerloff et al., 2017; conditions: 10 ng/mL for 24h; ref Gerloff et al., 2017; cited from earlier work
[6] = test system: human airway smooth muscle cells; set-up: method as in McKay et al., 2000; conditions: 1-500 U/mL for 24h; ref McKay et al., 2000; cited from earlier work
EpiAlveolar™ tissues [7] = experiment: High-throughput transcriptomics (RNA-seq, PLIER latent variables), EpiAlveolar model, Laboratory 2; assay type: cell-based, human; conditions: for MinPoD: Transcriptomics, biomarker 111
EpiAlveolar™ tissues [8] = experiment: Histology and immunohistochemistry, EpiAlveolar model, Laboratory 2; conditions: Laboratory 2, 12-day period
Procedure: To evaluate the quality of EpiAlveolar™ tissues over the 12-day experimental period, histological and immunohistochemistry assessments for detection of pan-cytokeratin, vimentin, aquaporin 5, pro-surfactant C, CD68, caspase-3, and/or αSMA were performed by Laboratories 1 and 2.
Tissues were kept in 10% phosphate buffered formalin at 4°C for up to 48 h. Samples were then fixed in 70% ethanol and two strips of membrane were trimmed from each sample, processed, and paraffin-embedded to be cut at 5 µm thick sections and mounted to glass slides. The slides were then dewaxed in xylene, hydrated using graded industrial methylated spirit (70-100%) and stained with H&E for light microscope analysis.
For immunohistochemistry analysis, tissue sections-containing microscope slides were obtained and processed using a Discovery Ultra Staining System (Roche), according to manufacturer’s instructions, except for anti-CD68 staining that was manually performed. The slides were incubated at 60°C for 8 min and then deparaffinized at 69°C for 24 min. After that, slides were incubated with inhibitor CM or peroxidase blocking solution (for anti-CD68 staining) for 8 min at room temperature. The slides were then incubated at room temperature with the following primary monoclonal antibodies, following manufacturer’s instructions: anti-α smooth muscle actin (αSMA) at 1:500 (Leica Microsystems Ltd), anti-CD68 at 1:3000 for macrophages (11192-T24, Sino Biological), anti-pro-surfactant C protein at 1:1000 (AB3786, Sigma-Aldrich), anti-caspase-3 at 1:10000 (AB4051, Abcam), anti-aquaporin 5 (31661, Invitrogen), anti-pan-cytokeratin for epithelial cells (760-2595, Roche), and anti-vimentin for mesenchymal cells (790-2917, Roche). […]
A board-certified pathologist evaluated the changes (epithelial thinning, separation/detachment areas, necrosis, collagen, and presence of apoptotic cells, myofibroblasts, and type II pneumocytes) using a semi-quantitative scoring system (Table 2).

[9] = cited from earlier work
EpiAlveolar™ model = experiment: Bioactivity exposure ratio (BER): lowest in vitro PoD of EpiAlveolar readouts / lower respiratory tract exposure estimate or Cmax; set-up: species or system human; conditions: Plasma
Procedure: (§7) Concentration and time-dependent changes in the bioactivity readout data were analyzed using a nonlinear state space model, based on the work of [Svensson and Schön (2017)]. […] All bioactivity readouts were included in the analysis (where available), i.e., measurements for tissue integrity loss (TEER) and functionality (MCC, CBF, and mucin secretion), cytokine/chemokine secretion, and the transcriptional LV values obtained using PLIER. The datasets were grouped so that a single state space model was used to capture all the responses (across time, concentration, and test material) for a single readout obtained within a particular study (laboratory/tissue model). Data were transformed to the log base 10 scale and normalized using z-scores, so that for a given readout Ytij from a laboratory/tissue model, the corresponding normalized value was given by y^tij=⁡log⁡10(Ytij)−μ)/σ . Here, the indexes i,j,t correspond to the different test materials, concentrations and timepoints, μ and σ are the sample mean and standard deviation of the control readout values obtained for the first timepoint. All measurement were then scaled so that the maximum median value across different replicates was one for all timepoints, readouts and test materials within a given laboratory/tissue model.
The model consists of state variables xti,j , response variables ytij and the concentrations of material c^i,j . The response variables yti,j represent the normalized (see below) readout values at timepoint t for material exposure i,j . The mean of the response variable is given by xti,j , so that yti,j∼xti,j+et , where et represents random fluctuations in the readout values, due to observational noise, which are taken to be normally distributed. Dynamical changes in state values are given by xti,j=fxt−1i,j,cti,j+vt . Here, fxt−1i,j,c^i,j is a non-linear function that represents interactions between different state variables and the perturbation caused by the test material at a given exposure at concentration c^i,j, and vt represents random fluctuations in state dynamics (which are also normally distributed). Following [Svensson and Schön (2017)], the nonlinear terms are based on an approximation to Gaussian processes, which are obtained using a basis function expansion-based approach. Inference of the model parameters was performed in the framework of Bayesian inference, wherein random draws of the posterior distribution were obtained using Sequential Monte Carlo (SMC), see [Svensson and Schön (2017)] and [Chopin and Papaspiliopoulos (2020)]. For each state space model representing a particular laboratory/readout dataset, SMC simulation was run for three chains at 5,000 iterations each, and first 1,000 iterations were discarded from the final posterior samples. The Rhat convergence diagnostic (Rhat < 1.1) was used to ensure the simulations had converged.
The state space model and posterior model parameter samples were then used to construct posterior predictive distributions of the response of each readout to a given test material for a given concentration and timepoint (see Figure 4). The posterior predictive distributions were used to estimate various statistics on the readout responses (median, 95% credible range etc.), PoDs, Concentration Dependency Scores (CDS) and two Effect Scores (increase and decrease). PoDs were defined as the concentration at which the mean response to a test material exceeded the 95% credible range of control for each timepoint (otherwise the mean response remains within the range of control). PoDs distribution for each timepoint, test material and readout, from which different statistical measures (e.g., the median, 95% credible range etc.) were calculated. The CDS was designed to provide confidence metric in whether an effect in the data was truly concentration dependent.

EpiAlveolar™ tissues [10] = experiment: Cytokine and chemokine measurements (Luminex), EpiAlveolar model, Laboratory 2; assay type: cell-based, human; conditions: for MinPoD: EpiAlveolar™ model Laboratory-2
Excerpt: (§2) EpiAlveolar™ system was obtained from MatTek Corporation (Ashland, MA, United States, cat. no. ALV-100-FT-MAC, ALV-100-FT-MAC-PE12). According to the supplier, the tissue systems were derived from primary human alveolar epithelial cells and primary pulmonary fibroblasts, both from a same healthy donor, and pulmonary endothelial cells from another healthy donor, and THP-1 cell line derived macrophages. These tissues were differentiated by the manufacturer prior to shipping to the testing facilities. […] TEER was measured and only systems with confirmed quality of the tight junction barrier (>300 Ω.cm^2) and with approved morphological inspection were used in the experiments.
(§3) Vehicle control groups were also tested in parallel. Except for Doxorubicin (which underwent a 6-day chemical exposure + 6-day without exposure), exposures were conducted daily, on 12 consecutive days with different concentrations, through aerosol, apical or basolateral liquid exposure methods (Table 2). […] Each of the insert holders of the instrument base module was filled with Hanks’ Balanced Salt solution (HBSS) or PBS prior to placing the tissue inserts. Then, each test item solution/suspension was placed into the nebulizer reservoir for aerosol material exposure. The nebulizer was activated until the material solution/suspension was consumed and discharged into the main exposure chamber and allowed to fully gravity deposit out of the Cloud 12 (determined using a QCM). After exposure, the tissues were placed back into their multi-well culture plates containing the same medium, a further aliquot of media was added apically (20 µL for Akemi, 75 µL for all others except LPS) and returned to incubator until next exposure. Media used during the 6- or 12-day experimental period was prepared without Supplement X by MatTek. In medium exposure, the apical or basolateral liquid of each tissue was removed and replaced with each test item medium solution/suspension and returned to the incubator until the next exposure. After the beginning of the exposure cycles, tissues were only re-fed with new culture medium every 3-4 days.
In Laboratory 2, apical culture media samples of the tissues were collected, stored at −80°C until shipment, in dry ice with temperature monitor control, to Unilever SERS, where the analyses were performed. Upon receipt, samples were again stored in the −80°C until the analysis using Human Luminex® Discovery Assay kits (R&D Systems). The same readouts investigated for MucilAir™-HF tissue samples were quantified in these samples.

EpiAlveolar™ tissues [11] = experiment: Cytokine and chemokine measurements (Luminex), EpiAlveolar model, Laboratory 1; assay type: cell-based, human; conditions: for MinPoD: EpiAlveolar™ model Laboratory-1
Excerpt: as §2, §3
In Laboratory 1, basal media samples collected from the tissues were collected and stored at ≤ −60°C until analysis. For cytokine/chemokine measurements, 17-Plex, duplex and single-plex analyte detection panels were run on the samples using Human Luminex™ Multiplex Immunoassay kits (R&D Systems). The analytes quantified were TNF-α, IL-6, MMP-9, MMP-3, MMP-1, MMP-2, CXCL10, CCL2, IFN-γ, IL-1ra, CCL7, IL-1a, CCL26, CXCL9, VCAM-1, ICAM-1, and CXCL11 in a 17-plex assay; whereas IL-8 and Serpin E1 in a duplex assay and TGF-β1 in a single-plex assay.

[12] = human, therapeutic dose, infusion of 60 mg/m^2 for 40 min; ref Barpe et al. (2010); cited from earlier work
MucilAir™-HF tissues [13] = test system: MucilAir™-HF tissues; remark: listed apart in the source
Procedure: as §4
For toxicity testing performed over a 12-day experimental period, tissues were daily exposed to 3 different concentrations of each test material for 30 min or 6 h (for detailed information on each material see Table 1). […] Tissues were exposed by test materials via nebulization, liquid apical application, or liquid basal application. These differences in the exposure type were due to solubility of the test material, route of exposure (inhaled or systemic), or comparison with previous publications. […]

[14] = test system: human bronchial epithelial cells (BEAS-2B); set-up: method as in Sthijns et al., 2014; conditions: 3-10 µM, 30-min exposure; ref Sthijns et al., 2014; cited from earlier work
[15] = test system: NCI-292 and normal human bronchial epithelial cells; set-up: method as in Deshmukh et al., 2005; conditions: ref Deshmukh et al., 2005; cited from earlier work
NCI-H292 cells = conditions: 0.03 µM for 4 h; ref Deshmukh et al., 2005; cited from earlier work
[16] = day 12, High 1 concentration (third of the tested concentrations)
[17] = day 12, Low concentration (first of the tested concentrations)
[18] = day 12, Medium concentration (second of the tested concentrations)

Procedure for MucilAir™-HF model: as §7
The model consists of state variables xti,j , response variables ytij and the concentrations of material c^i,j . The response variables yti,j represent the normalized (see below) readout values at timepoint t for material exposure i,j . The mean of the response variable is given by xti,j , so that yti,j∼xti,j+et , where et represents random fluctuations in the readout values, due to observational noise, which are taken to be normally distributed. Dynamical changes in state values are given by xti,j=fxt−1i,j,cti,j+vt . […] For each state space model representing a particular laboratory/readout dataset, SMC simulation was run for three chains at 5,000 iterations each, and first 1,000 iterations were discarded from the final posterior samples. […]

Benzalkonium chloride [BAC]
% of Muc5AC area (MucilAir™-HF tissues [1]; [16]): 3.98 ± 1.12% | % of Muc5AC area (MucilAir™-HF tissues [1]; [17]): 5.75 ± 0.93% | % of Muc5AC area (MucilAir™-HF tissues [1]; [18]): 5.37 ± 1.06% | Cytokines/chemokines modulated (in words) (MucilAir™-HF tissues [2]; 30 min/day exposure): increase in CCL7, IL-1α and IL-6; also recorded: downregulation of MMP-7 only | Cytokines/chemokines modulated (in words) (MucilAir™-HF tissues [2]; exposure time/day not given): IL-1ra showed upregulated levels | MinPoD (MucilAir™-HF tissues [2]; Day 8): 1.822 μg/cm2 | MinPoD (MucilAir™-HF tissues [2]; Day 12): 1.409 μg/cm2 | Tissue barrier integrity (TEER) change (in words) (MucilAir™-HF tissues [3]): trigger changes in tissue barrier integrity | MinPoD (MucilAir™-HF tissues [4]): 2.6 μg/cm2

Recombinant human TNF-α (carrier-free)
IL-8 protein levels [5]: increased IL-8 protein levels | % of Muc5AC area (MucilAir™-HF tissues [1]; [16]): 5.21 ± 3.28% | % of Muc5AC area (MucilAir™-HF tissues [1]; [17]): 8.18 ± 1.54% | % of Muc5AC area (MucilAir™-HF tissues [1]; [18]): 9.15 ± 6.07% | Cytokines/chemokines modulated (in words) (MucilAir™-HF tissues [2]; 30 min/day exposure): upregulation of CCL2 and osteopontin | IL-6 production protein and mRNA transcript levels [6]: significant increase of IL-6 production protein and mRNA transcript levels

COc1cccc2c1C(=O)c1c(O)c3c(c(O)c1C2=O)C[C@@](O)(C(=O)CO)C[C@@H]3O[C@H]1C[C@H](N)[C@H](O)[C@H](C)O1 [Doxorubicin, Doxorubicin hydrochloride]
Median change, 171 - INTRAFLAGELLAR_TRANSPORT (EpiAlveolar™ tissues [7]): 0.04 | MinPoD (EpiAlveolar™ tissues [7]; Day 1): 0.002879 μg/cm2 | MinPoD (EpiAlveolar™ tissues [7]; Day 4): 0.00076 μg/cm2 | MinPoD (EpiAlveolar™ tissues [7]; Day 8): 0.0007958 μg/cm2 | MinPoD (EpiAlveolar™ tissues [7]; Day 12): 0.000701 μg/cm2 | Histological changes compared to vehicle and control groups (in words) (EpiAlveolar™ tissues [8]): minor increase in epithelial thinning and a minor increase in the numbers of degenerate cells were observed by day 4 | Risk ([9]; Scenario Plasma): High | Risk classification ([9]; per benchmark chemical-exposure scenario (product and exposure scenario of the same line), based on historical safety decisions, ref References column of Table 3): High | BER_min (EpiAlveolar™ model; Day 1, EpiAlveolar™ model Laboratory-2): 0.2187 | BER_min (EpiAlveolar™ model; Day 1, Transcriptomics): 0.002215 | BER_min (EpiAlveolar™ model; Day 4, EpiAlveolar™ model Laboratory-1): 0.1204 | BER_min (EpiAlveolar™ model; Day 4, EpiAlveolar™ model Laboratory-2): 0.08579 | BER_min (EpiAlveolar™ model; Day 4, Transcriptomics): 0.0005847 | BER_min (EpiAlveolar™ model; Day 8, EpiAlveolar™ model Laboratory-1): 0.1025 | BER_min (EpiAlveolar™ model; Day 8, EpiAlveolar™ model Laboratory-2): 0.05859 | BER_min (EpiAlveolar™ model; Day 8, Transcriptomics): 0.0006121 | BER_min (EpiAlveolar™ model; Day 12, EpiAlveolar™ model Laboratory-1): 0.09985 | BER_min (EpiAlveolar™ model; Day 12, EpiAlveolar™ model Laboratory-2): 0.0528 | BER_min (EpiAlveolar™ model; Day 12, Transcriptomics): 0.0005393 | Cytokines/chemokines modulated (in words) (EpiAlveolar™ tissues [10]; EpiAlveolar, Laboratory 2): tendency towards downregulation of the inflammatory and degradation of extracellular matrix/fibrosis responses | MinPoD (EpiAlveolar™ tissues [10]; Day 1, biomarker CCL2): 0.2843 μg/cm2 | MinPoD (EpiAlveolar™ tissues [10]; Day 4, biomarker CCL2): 0.1115 μg/cm2 | MinPoD (EpiAlveolar™ tissues [10]; Day 8, biomarker CCL7): 0.07617 μg/cm2 | MinPoD (EpiAlveolar™ tissues [10]; Day 12, biomarker CCL7): 0.06864 μg/cm2 | Cytokines/chemokines modulated (in words) (EpiAlveolar™ tissues [11]; EpiAlveolar, Laboratory 1): tendency towards downregulation of the inflammatory and degradation of extracellular matrix/fibrosis responses; also recorded: dual effect with the anti-inflammatory IL-1ra response | MinPoD (EpiAlveolar™ tissues [11]; Day 4, biomarker MMP-3): 0.1566 μg/cm2 | MinPoD (EpiAlveolar™ tissues [11]; Day 8, biomarker MMP-3): 0.1333 μg/cm2 | MinPoD (EpiAlveolar™ tissues [11]; Day 12, biomarker MMP-9): 0.1298 μg/cm2 | Plasma conc [12]: Plasma conc 1.3 μM

Carboxymethylcellulose sodium salt [CMC]
MCC change (in words) (MucilAir™-HF tissues [13]): concentration-dependent reduction in the MCC only on day 1 | BER_min (MucilAir™-HF model): 2.393

C=CC=O [Acrolein]
% of Muc5AC area (MucilAir™-HF tissues [1]; [16]): 5.21 ± 2.16% | % of Muc5AC area (MucilAir™-HF tissues [1]; [17]): 3.66 ± 1.21% | % of Muc5AC area (MucilAir™-HF tissues [1]; [18]): 7.40 ± 1.45% | Cytotoxicity (LDH leakage) [14]: concentration-dependent cytotoxicity through LDH leakage increase | MMP9 mRNA expression [15]: increase of MMP9 mRNA expression | MUC5AC mRNA expression (NCI-H292 cells): MUC5AC mRNA expression increase
